Values of other authors, collected in US6441041B1, “(-)-hydroxycitric acid for the prevention of osteoporosis” (priority 2001, dated 2002).

Legend:
[1] = system: female Zucker obese (Fa/fa) rats; settings: obese animals
[2] = system: female Zucker lean (Fa/−) rats; settings: lean animals

O=C([O-])CC(O)(C(=O)[O-])C(O)C(=O)[O-].[Na+].[Na+].[Na+] (stereo not drawn) [Tri-NaHCA, trisodium (−)-hydroxycitrate]
Carcass protein and ash/mineral content in comparison with control [1]: increased carcass protein and ash/mineral content
Carcass protein and ash/mineral content in comparison with control [2]: increased carcass protein and ash/mineral content
